# Test results: patent publication US20060223790A1, “Modulation of Microglial by Nicotinic Medications” (University of South Florida, priority 2004, published 2006)
# What was measured:
# APP transgenic mice = conditions: cited from earlier work; for Aβ deposition: APP transgenic mice
# [1] = test system: primary cultured microglial cells; assay type: cell-based, mouse
# microglia = conditions: cited from earlier work
# [2] = test system: primary cultured microglial cells; assay type: cell-based, mouse; remark: listed apart in the source
# p44/42 MAPK = assay type: cell-based, mouse
compound,measurement,setting,value
Oc1c(I)cc(Cl)c2cccnc12 [clioquinol],Aβ deposition,APP transgenic mice,reduced
COc1cc(/C=C/C(=O)CC(=O)/C=C/c2ccc(O)c(OC)c2)ccc1O [curcumin],Aβ deposition,APP transgenic mice,reduced
CC(C)Cc1ccc(C(C)C(=O)O)cc1 (stereo not shown) [ibuprofen],Aβ deposition,APP transgenic mice,reduced
CN1CCCC1c1cccnc1 (stereo not shown) [nicotine],HIV-1 gp120/IFN-Υ-induced TNF-α production,[1],slight reduction
same,LPS-induced TNF-α release,microglia,inhibit
same,microglial activation induced by bacterial endotoxin (LPS),microglia,reduced
same,HIV-1 gp120/IFN-Υ-induced NO release,[2],slight reduction
same,reduction in β-amyloid plaque,"APP transgenic mice; mouse, in vivo",comparable
α-bungarotoxin,effect on galantamine/nicotine inhibition of phosphorylation of p44/42 MAPK,p44/42 MAPK,significantly attenuated
same,effect on galantamine/nicotine inhibition of microglial NO release,[2],significantly attenuates
